Data reported in patent US6004957A, “Sulfonamide inhibitors of aspartyl protease” (Vertex Pharmaceuticals, Incorporated, priority 1998, dated 1999).

Tested on: HIVIIIb in CCRM-CEM cells
Test: Anti-viral potency in CCRM-CEM cells acutely infected with HIVIIIb (method of Meek et al.), extracellular p24 antigen
Assay type: cell-based, HIV-1
Conditions: Human immunodeficiency virus 1, HIV replication, Table VIII, read-out: IC90 Range
Excerpt: As discussed above, the novel compounds of the present invention are excellent ligands for aspartyl proteases, particularly HIV-1 and HIV-2 proteases. Accordingly, these compounds are capable of targeting and inhibiting late stage events in HIV replication, i.e., the processing of the viral polyproteins by HIV encoded proteases. […] Because aspartyl protease is essential for the production of mature virions, inhibition of that processing effectively blocks the spread of virus by inhibiting the production of infectious virions, particularly from chronically infected cells. […] Other anti-viral assays have confirmed the potency of these compounds.
Compounds of formula I were tested for their antiviral potency in several virological assays. In the first assay, the compounds were added as a solution in dimethylsulfoxide (DMSO) to a test cell culture of CCRM-CEM cells, a strain of CD4^+ human T-cell lymphoma cells, previously acutely infected with HIVIIIb using standard protocols (see Meek, T. D. et al., "Inhibition of HIV-1 protease in infected T-lymphocytes by synthetic peptide analogues", Nature, 343, p. 90 (1990). Preferred compounds are those which are able to inhibit 90% of viral infectivity at a concentration of 1 μM or less. More preferred compounds are those which are able to inhibit 90% of viral infectivity at a concentration of 100 nM or less.
The effect of the compounds on inhibiting the replication of the virus was measured by determining the HIV extracellular p24 antigen concentration using a commercial enzyme immunoassay (obtained from Coulter Corporation, Hialeah, Fla.).

Row | Compound | IC90 [nM]
1 | CC(C)CN(C[C@@H](O)[C@H](Cc1ccccc1)NC(=O)O[C@H]1CCOC1)S(=O)(=O)c1ccc(Cl)cc1 [Compound 99, 4-Chloro-N-((2 syn,3S)-2-hydroxy-4-phenyl-3-((S)-tetrahydrofuran-3-yloxycarbonylamino)-butyl)-isobutyl-benzenesulfonamide] | 101 to 1000
2 | COc1ccc(S(=O)(=O)N(CC(C)C)C[C@@H](O)[C@H](Cc2ccccc2)NC(=O)O[C@H]2CCOC2)cc1 [Compound 100, N-((2 syn,3S)-2-Hydroxy-4-phenyl-3-((S)-tetrahydrofuran-3-yloxycarbonylamino)-butyl)-N-isobutyl-4-methoxy-benzenesulfonamide] | < 100
3 | COC(=O)N[C@@H](Cc1ccccc1)[C@H](O)CN(CC(C)C)S(=O)(=O)c1ccc(Cl)c(Cl)c1 [Compound 103] | 1000 to 10000
4 | COC(=O)N[C@@H](Cc1ccccc1)[C@H](O)CN(CC(C)C)S(=O)(=O)c1ccc(F)cc1 [Compound 104] | 1000 to 10000
5 | C=C(C)COC(=O)N[C@@H](Cc1ccccc1)[C@H](O)CN(CC(C)C)S(=O)(=O)c1ccc(Cl)c(Cl)c1 [Compound 106] | 1000 to 10000
6 | C=C(C)COC(=O)N[C@@H](Cc1ccccc1)[C@H](O)CN(CC(C)C)S(=O)(=O)c1ccc(F)cc1 [Compound 107] | 1000 to 10000
7 | CC(C)CN(C[C@@H](O)[C@H](Cc1ccccc1)NC(=O)OC[C@@H]1COC(=O)N1)S(=O)(=O)c1ccc(F)cc1 [Compound 109, 4-Fluoro-N-(2-(syn)-hydroxy-3-((2-oxazolidon-(S)-4-yl)-methoxycarbonylamino)-4-(S)-phenyl-butyl)-N-isobutyl-benzenesulfonamide] | 101 to 1000
8 | O=C(N[C@@H](Cc1ccccc1)[C@H](O)CN(CC1CCCC1)S(=O)(=O)c1ccc(F)cc1)OCc1cccnc1 [Compound 111] | 1000 to 10000
9 | CC(C)CN(C[C@@H](O)[C@H](Cc1ccccc1)NC(=O)O[C@H]1CCOC1)S(=O)(=O)c1cccc(S(N)(=O)=O)c1 [Compound 112, Benzene-1,3-disulfonic acid 1-amide 3-((2 syn,3S)-2-hydroxy-4-phenyl-3-(3-(S)-tetrahydrofuran-3-yloxycarbonylamino)-butyl)-isobutyl-amide] | 101 to 1000
10 | CC(C)CN(C[C@@H](O)[C@H](Cc1ccccc1)NC(=O)O[C@H]1CCOC1)S(=O)(=O)c1ccoc1 [Compound 113] | 101 to 1000
11 | C=CCOC(=O)N[C@@H](Cc1ccccc1)[C@H](O)CN(CC1CCCC1)S(=O)(=O)c1ccc(F)cc1 [Compound 114, N-((3-Allyloxycarbonylamino)-(2 syn,3S)-2-hydroxy-4-phenyl-butyl)-N-cyclopentylmethyl-4-fluoro-benzenesulfonamide] | 101 to 1000
12 | CCOC(=O)N[C@@H](Cc1ccccc1)[C@H](O)CN(CC1CCCC1)S(=O)(=O)c1ccc(F)cc1 [Compound 115, N-Cyclopentylmethyl-N-((3-ethoxycarbonylamino)-(2 syn,3S)-2-hydroxy-4-phenyl-butyl)-4-fluoro-benzenesulfonamide] | 101 to 1000
13 | O=C(N[C@@H](Cc1ccccc1)[C@H](O)CN(CC1CCCC1)S(=O)(=O)c1ccc(Cl)cc1)O[C@H]1CCOC1 [Compound 116, 4-Chloro-N-cyclopentylmethyl-N-((2 syn,3S)-2-hydroxy-4-phenyl-3-((S)-tetrahydrofuran-3-yloxycarbonylamino)-butyl)-benzenesulfonamide] | < 100
14 | C=CCOC(=O)N[C@@H](Cc1ccccc1)[C@H](O)CN(CC1CCCC1)S(=O)(=O)c1ccc(Cl)cc1 [Compound 117] | 1000 to 10000
15 | O=C(N[C@@H](Cc1ccccc1)[C@H](O)CN(CC1CCCC1)S(=O)(=O)c1ccc(Cl)cc1)OCc1cccnc1 [Compound 118] | 101 to 1000
16 | CCOC(=O)N[C@@H](Cc1ccccc1)[C@H](O)CN(CC(C)C)S(=O)(=O)c1ccc(Cl)c(Cl)c1 [Compound 119] | 1000 to 10000
17 | CCOC(=O)N[C@@H](Cc1ccccc1)[C@H](O)CN(CC(C)C)S(=O)(=O)c1ccc(F)cc1 [Compound 121] | 1000 to 10000
18 | C=CCOC(=O)N[C@@H](Cc1ccccc1)[C@H](O)CN(CC(C)C)S(=O)(=O)c1ccc(F)cc1 [Compound 122] | 1000 to 10000
